From patent publication US20190002448A1, “SUBSTITUTED BENZOFURANYL AND BENZOXAZOLYL COMPOUNDS AND USES THEREOF” (Karyopharm Therapeutics Inc., priority 2015, published 2019)

Experiments:
Type in all cases: cell-based
MS751 cells = assay: MTT cell proliferation assay, MS751 cells; conditions: Homo sapiens; MS751 cervical squamous cell carcinoma cells; approximately 64-72 hours incubation; read-out: MTT Assay IC50 MS-751
Method: (§1) The MTT cell proliferation assay was used to study the cytotoxic properties of the compounds. The assay was performed according to the method described by Roche Molecular Biochemicals, with minor modifications. The assay is based on the cleavage of the tetrazolium salt, MTT, in the presence of an electron-coupling reagent. The water-insoluble formazan salt produced must be solubilized in an additional step. Cells grown in a 96-well tissue culture plate were incubated with the MTT solution for approximately 4 hours. After this incubation period, a water-insoluble formazan dye formed. After solubilization, the formazan dye was quantitated using a scanning multi-well spectrophotometer (ELISA reader). […] The cells were seeded at 5,000-10,000 cells in each well of 96-well plate in 100 μL of fresh culture medium and were allowed to attach overnight. The stock solutions of the compounds were diluted in 100 μL cell culture medium to obtain eight concentrations of each test compound, ranging from 1 nM to 30 μM. […] All optical densities were measured at 490 nm using a Vmax Kinetic Microplate Reader (Molecular Devices). In most cases, the assay was performed in duplicate and the results were presented as a mean percent inhibition to the negative control±SE. The following formula was used to calculate the percent of inhibition: Inhibition (%)=(1−(ODo/OD))×100.
(§2) The compounds were tested against MS751, Z138 and 3T3 cells. The MS751 cell line is derived from a metastasis to lymph node of human cervix from a patient diagnosed with squameous cell carcinoma of the cervix. The Z138 cell line is a mature B-cell acute lymphoblastic leukemia cell line derived from a patient with chronic lumphocytic leukemia. 3T3 cells are standard fibroblast cells; they were originally isolated from Swiss mouse embryo tissue.

3T3 cells = assay: MTT cell proliferation assay, 3T3 cells; conditions: Mus musculus, NIH3T3; 3T3 fibroblast cells; approximately 64-72 hours incubation
Method: as §1, §2

Z138 cells = assay: MTT cell proliferation assay, Z138 cells; conditions: Homo sapiens, Z-138, approximately 64-72 hours incubation
Method: as §1, §2

Measured: IC50

Nc1ccc(/C=C/C(=O)NCc2cc3cc(-c4ccc(C(=O)N5CCC(F)(F)CC5)cc4F)cc(Oc4ccc(F)cc4)c3o2)cn1 [Compound 103, (E)-3-(6-aminopyridin-3-yl)-N-((5-(4-(4,4-difluoropiperidine-1-carbonyl)-2-fluorophenyl)-7-(4-fluorophenoxy)benzofuran-2-yl)methyl)acrylamide]
100 to 5000 nM: all assays above

Nc1ccc(/C=C/C(=O)NCc2cc3cc(-c4ccc(C(=O)N5CCC(F)(F)CC5)cc4)cc(Oc4ccc(F)cc4)c3o2)cn1 [Compound 100, (E)-3-(6-aminopyridin-3-yl)-N-((5-(4-(4,4-difluoropiperidine-1-carbonyl)phenyl)-7-(4-fluorophenoxy)benzofuran-2-yl)methyl)acrylamide]
100 to 5000 nM: all assays above

Nc1ccc(/C=C/C(=O)NCc2cc3cc(-c4ccc(C(=O)N5CCC(F)(F)CC5)cc4)cc(Oc4cccc(F)c4)c3o2)cn1 [Compound 101, (E)-3-(6-aminopyridin-3-yl)-N-((5-(4-(4,4-difluoropiperidine-1-carbonyl)phenyl)-7-(3-fluorophenoxy)benzofuran-2-yl)methyl)acrylamide]
100 to 5000 nM: all assays above

Nc1ccc(/C=C/C(=O)NCc2cc3cc(-c4ccc(C(=O)N5CCC(F)(F)CC5)cc4)cc(OC4CCC4)c3o2)cn1 [Compound 104, (E)-3-(6-aminopyridin-3-yl)-N-((7-cyclobutoxy-5-(4-(4,4-difluoropiperidine-1-carbonyl)phenyl)benzofuran-2-yl)methyl)acrylamide]
100 to 5000 nM: all assays above

Nc1ccc(/C=C/C(=O)NCc2cc3cc(-c4ccc(C(=O)N5CCC(F)(F)CC5)cc4F)cc(OC4CCC4)c3o2)cn1 [Compound 105, (E)-3-(6-aminopyridin-3-yl)-N-((7-cyclobutoxy-5-(4-(4,4-difluoropiperidine-1-carbonyl)-2-fluorophenyl)benzofuran-2-yl)methyl)acrylamide]
100 to 5000 nM: all assays above

Nc1ccc(/C=C/C(=O)NCc2cc3cc(-c4ccc(C(=O)N5CCC(F)(F)CC5)cc4F)cc(Oc4cccc(F)c4)c3o2)cn1 [Compound 102, (E)-3-(6-aminopyridin-3-yl)-N-((5-(4-(4,4-difluoropiperidine-1-carbonyl)-2-fluorophenyl)-7-(3-fluorophenoxy)benzofuran-2-yl)methyl)acrylamide]
100 to 5000 nM: all assays above
